Assay results: patent publication US20230017045A1, “PYRIDINE AND PYRIMIDINE CARBOXYLATE HERBICIDES AND METHODS OF USE THEREOF” (Dow AgroSciences LLC, priority 2017, published 2023)
Where two headings read alike, the source gives them in different places.

Tested on: test plant species
Assay: Post-emergent herbicidal activity test (greenhouse, foliar spray, visual growth reduction)
Assay type: in vivo
Conditions: post-emergence, 336 h, 140 g ai/ha
How it was run: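 Seedlings were raised 7-21 d in a greenhouse under a 15 h photoperiod until the first or second true leaf. Each compound, dissolved in acetone:DMSO 97:3 and diluted into a surfactant-containing spray mixture, was then applied at 187 L/ha. Plants were subirrigated, and growth reduction was scored visually at 14 d.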

[1] = ALOMY: blackgrass (Alopecurus myosuroides), 14 days after application, read-out: Visual Growth Reduction (%) 14 Days After Application, ALOMY
[2] = AMARE: redroot pigweed (Amaranthus retroflexus), 14 days after application, read-out: Visual Growth Reduction (%) 14 Days After Application, AMARE
[3] = AVEFA: wild oat (Avena fatua), 14 days after application, read-out: Visual Growth Reduction (%) 14 Days After Application, AVEFA
[4] = CHEAL: lambsquarters (Chenopodium album), 14 days after application, read-out: Visual Growth Reduction (%) 14 Days After Application, CHEAL
[5] = CIRAR: canada thistle (Cirsium arvense), 14 days after application, read-out: Visual Growth Reduction (%) 14 Days After Application, CIRAR
[6] = CYPES: yellow nutsedge (Cyperus esculentus), 14 days after application, read-out: Visual Growth Reduction (%) 14 Days After Application, CYPES
[7] = DIGSA: crabgrass (Digitaria sanguinalis), 14 days after application, read-out: Visual Growth Reduction (%) 14 Days After Application, DIGSA
[8] = ECHCG: barnyardgrass (Echinochloa crus-galli), 14 days after application, read-out: Visual Growth Reduction (%) 14 Days After Application, ECHCG
[9] = IPOHE: ivy-leaf morning glory (Ipomoea hederacea), 14 days after application, read-out: Visual Growth Reduction (%) 14 Days After Application, IPOHE
[10] = KCHSC: kochia (Bassia scoparia), 14 days after application, read-out: Visual Growth Reduction (%) 14 Days After Application, KCHSC
[11] = ORYSA: rice (Oryza sativa), 14 days after application, read-out: Visual Growth Reduction (%) 14 Days After Application, ORYSA
[12] = SETFA: giant foxtail (Setaria faberi), 14 days after application, read-out: Visual Growth Reduction (%) 14 Days After Application, SETFA
[13] = SORVU: grain sorghum (Sorghum vulgare), 14 days after application, read-out: Visual Growth Reduction (%) 14 Days After Application, SORVU
[14] = STEME: common chickweed (Stellaria media), 14 days after application, read-out: Visual Growth Reduction (%) 14 Days After Application, STEME
[15] = TRZAS: wheat, spring (Triticum aestivum), 14 days after application, read-out: Visual Growth Reduction (%) 14 Days After Application, TRZAS
[16] = blackgrass (Alopecurus myosuroides), 14 Days After Application, read-out: Visual Growth Reduction (%) ALOMY
[17] = canada thistle (Cirsium arvense), 14 Days After Application, read-out: Visual Growth Reduction (%) CIRAR
[18] = crabgrass (Digitaria sanguinalis), 14 Days After Application, read-out: Visual Growth Reduction (%) DIGSA
[19] = lambsquarters (Chenopodium album), 14 Days After Application, read-out: Visual Growth Reduction (%) CHEAL
[20] = redroot pigweed (Amaranthus retroflexus), 14 Days After Application, read-out: Visual Growth Reduction (%) AMARE
[21] = wild oat (Avena fatua), 14 Days After Application, read-out: Visual Growth Reduction (%) AVEFA
[22] = yellow nutsedge (Cyperus esculentus), 14 Days After Application, read-out: Visual Growth Reduction (%) CYPES

SMILES | pest or weed control at 140 g/ha [1] [%] | pest or weed control at 140 g/ha [2] [%] | pest or weed control at 140 g/ha [3] [%] | pest or weed control at 140 g/ha [4] [%] | pest or weed control at 140 g/ha [5] [%] | pest or weed control at 140 g/ha [6] [%] | pest or weed control at 140 g/ha [7] [%] | pest or weed control at 140 g/ha [8] [%] | pest or weed control at 140 g/ha [9] [%] | pest or weed control at 140 g/ha [10] [%] | pest or weed control at 140 g/ha [11] [%] | pest or weed control at 140 g/ha [12] [%] | pest or weed control at 140 g/ha [13] [%] | pest or weed control at 140 g/ha [14] [%] | pest or weed control at 140 g/ha [15] [%] | pest or weed control at 140 g/ha [16] [%] | pest or weed control at 140 g/ha [17] [%] | pest or weed control at 140 g/ha [18] [%] | pest or weed control at 140 g/ha [19] [%] | pest or weed control at 140 g/ha [20] [%] | further results
COC(=O)c1nc(-c2ccc(OCC(F)(F)F)cc2)c(F)cc1Cl [F163, Methyl 3-chloro-5-fluoro-6-(4-(2,2,2-trifluoroethoxy)phenyl) picolinate] | 0 to 29 | 30 to 44 | 0 to 29 | 45 to 59 | 0 to 29 | 0 to 29 | 0 to 29 | 0 to 29 | 45 to 59 | 0 to 29 | 0 to 29 | 0 to 29 | 0 to 29 | 0 to 29 | 0 to 29 | – | – | – | – | – | –
COC(=O)c1cc2c(c(-c3ccc(Cl)c(C(=O)OC)n3)c1)OC(F)(F)O2 [F245, Methyl 3-chloro-6-(2,2-difluoro-6-(methoxycarbonyl)benzo[d][1,3]dioxol-4-yl)picolinate] | – | – | – | – | – | – | – | 0 to 29 | 85 to 94 | 0 to 29 | 0 to 29 | 0 to 29 | 75 to 84 | 0 to 29 | 0 to 29 | 0 to 29 | 0 to 29 | 0 to 29 | 85 to 94 | 0 to 29 | pest or weed control at 140 g/ha [21]: 0 to 29%; pest or weed control at 140 g/ha [22]: 45 to 59%
COC(=O)c1nc(-c2ccc(C(C)F)cc2Cl)ccc1Cl (stereo not drawn) [F14, methyl 3-chloro-6-(2-chloro-4-(1-fluoroethyl)phenyl)-picolinate] | 0 to 29 | 0 to 29 | 0 to 29 | 85 to 94 | 0 to 29 | 0 to 29 | 0 to 29 | – | – | – | – | – | – | – | – | – | – | – | – | – | pest or weed control at 140 g/ha (barnyardgrass (Echinochloa crus-galli), 14 Days After Application, read-out: Visual Growth Reduction (%) ECHCG): 0 to 29%; pest or weed control at 140 g/ha (common chickweed (Stellaria media), 14 Days After Application, read-out: Visual Growth Reduction (%) STEME): 0 to 29%; pest or weed control at 140 g/ha (giant foxtail (Setaria faberi), 14 Days After Application, read-out: Visual Growth Reduction (%) SETFA): 0 to 29%; pest or weed control at 140 g/ha (ivy-leaf morning glory (Ipomoea hederacea), 14 Days After Application, read-out: Visual Growth Reduction (%) IPOHE): 45 to 59%; pest or weed control at 140 g/ha (johnsongrass (Sorghum vulgare), 14 Days After Application, read-out: Visual Growth Reduction (%) SORVU): 0 to 29%; pest or weed control at 140 g/ha (kochia (Bassia scoparia), 14 Days After Application, read-out: Visual Growth Reduction (%) KCHSC): 85 to 94%; pest or weed control at 140 g/ha (rice (Oryza sativa), 14 Days After Application, read-out: Visual Growth Reduction (%) ORYSA): 0 to 29%; pest or weed control at 140 g/ha (wheat, spring (Triticum aestivum), 14 Days After Application, read-out: Visual Growth Reduction (%) TRZAS): 0 to 29%
COC(=O)c1nc(-c2cc(Cl)c(C)cc2F)ccc1Cl [F271, Methyl 3-chloro-6-(5-chloro-2-fluoro-4-methylphenyl) picolinate] | – | – | – | – | – | – | – | 0 to 29 | 0 to 29 | 0 to 29 | 0 to 29 | 0 to 29 | 0 to 29 | 0 to 29 | 0 to 29 | 0 to 29 | 0 to 29 | 0 to 29 | 60 to 74 | 0 to 29 | pest or weed control at 140 g/ha [21]: 0 to 29%; pest or weed control at 140 g/ha [22]: 0 to 29%
COc1cc(C(F)(F)F)ccc1-c1nc(C(=O)O)c(Cl)cc1F [F190, 3-Chloro-5-fluoro-6-(2-methoxy-4-(trifluoromethyl)phenyl) picolinic acid] | 0 to 29 | 95 to 100 | 60 to 74 | 95 to 100 | 85 to 94 | 0 to 29 | 85 to 94 | 95 to 100 | 95 to 100 | 75 to 84 | 30 to 44 | 95 to 100 | 95 to 100 | 0 to 29 | 60 to 74 | – | – | – | – | – | –
